According to PubChem BioAssay AID720512 (Broad Institute, 2013):
Calls of active or inactive are those of the source. How the calls were made is not given here.

Biological target: Toxin B (TcdB) glycohydrolase, Clostridioides difficile 630
Assay: TcdB glycohydrolase inhibitors, dose response, biochemical, cherry-pick, plate reader (AID 720512)
Conditions: recombinant TcdB glycohydrolase activity

Row | SMILES | AC50
1 | C[C@H](CO)N1C[C@H](C)[C@@H](CN(C)C(=O)Nc2ccc(C(F)(F)F)cc2)Oc2c(NS(=O)(=O)c3cccs3)cccc2C1=O | > 39 µM (inactive)
2 | COc1ccc(-c2ccc3c(c2)[C@H]2[C@H](CCN2C(=O)C2CC2)[C@@H](CO)N3C)cc1 | > 39 µM (inactive)
3 | O=C(CCn1c(=O)oc2cc(Cl)ccc21)Nc1ccc(O)cc1 | > 20 µM (inactive)
4 | COc1cc(/C=N/n2c(-c3ccccc3)n[nH]c2=S)ccc1O | > 39 µM (inactive)
5 | CCC(=O)N1CC[C@@H]2[C@H]1c1cc(-c3ccccc3)ccc1N(C)[C@H]2CO | > 42 µM (inactive)
6 | COc1cc(/C=C/C(=O)OCC(=O)NC(=O)NC(C)C)ccc1O | > 39 µM (inactive)
7 | O=c1[nH]c(/C=C\c2ccc(O)c(Cl)c2)nc(O)c1[N+](=O)[O-] | > 39 µM (inactive)
8 | CCOc1ccccc1-n1c(=S)sc2c(=O)n(-c3ccc(F)cc3)c(SCC(=O)O)nc21 | > 39 µM (inactive)

Same assay, conditions: recombinant TcdB glycohydrolase activity, at 19.5 µM (top of the series)

Row | SMILES | activity change, negative = inhibition
9 | COc1ccc(C2=NS(=O)(=O)N(C)C(C(=O)N(C)Cc3ccccc3)=C2)cc1 | inactive
10 | COc1cccc2cc(/C(C)=N/NC(=O)c3ccco3)oc12 | inactive
11 | CC(C)(Oc1ccc(Cl)cc1)C(=O)NC1CC1 | inactive
12 | COc1nc(C)cc(C)c1S(=O)(=O)c1ccc(Cl)cc1 | inactive
13 | CCCNC(=O)C1CC(=O)N(c2ccc(OCC)cc2)C1 (centres undefined) | inactive
14 | CCCC(=O)Nc1sc2c(c1C(=O)Nc1ccccn1)CCCC2 | inactive
15 | COc1ccc(-c2cnc3c(c2)C(=O)N([C@@H](C)CO)C[C@H](C)[C@H](CN(C)C(=O)C2CCCCC2)O3)cc1 | inactive
16 | O=C(CSc1ccccc1)Nc1cc(S(=O)(=O)N2CCOCC2)ccc1N1CCOCC1 | inactive
17 | COc1cc2[nH]c(=S)nc(NCCC(C)C)c2cc1OC | inactive
18 | O=C(C[C@@H]1CC[C@@H]2[C@H](COC[C@H](O)CN2C(=O)c2ccccn2)O1)NC1CCC1 | inactive
19 | COc1ccc(S(=O)(=O)N2CCOCC2)cc1NC(=O)COC(=O)c1[nH]c(C)c(C(C)=O)c1C | inactive
20 | CCN(CCN(C)C)C(=O)C1CCN(S(=O)(=O)c2c(C)noc2/C=C/c2ccccc2F)CC1 | inactive
21 | Cc1nc2[nH]c(=S)[nH]c2c(=O)[nH]1 | inactive
22 | COc1ccc(C2=NS(=O)(=O)N(C)C(C(=O)NC(C)c3ccccc3)=C2)cc1OC (centres undefined) | inactive
23 | CCOC(=O)C1=C(C)Nc2nnnn2C1c1ccc(OC)c(Br)c1 (centres undefined) | inactive
24 | COc1ccc(C2=NS(=O)(=O)N(C)C(C(=O)N3CCc4ccccc4C3)=C2)cc1OC | inactive
25 | Cc1nc2ccccn2c1-c1ccnn1S(=O)(=O)c1ccc(F)cc1 | inactive
26 | CCNC(=O)C[C@@H]1CC[C@H]2[C@H](COc3ccc(NC(C)=O)cc3C(=O)N2C)O1 | inactive
27 | Cc1cc(C(=O)Nc2ncc(C)s2)c2ccccc2n1 | inactive

Row | SMILES | activity change, negative = inhibition
28 | Cc1ccc(C(=O)Nc2ccc(N3CCCCC3)cc2)cc1 | inactive
29 | Cn1c(=O)[nH]c(=O)c2c1[nH]c(=S)n2CCCc1ccccc1 | inactive
30 | C/C(=N\Nc1ccc([N+](=O)[O-])cc1)c1cccc(N)c1 | inactive
31 | Oc1ccc(-c2nc3cnccn3c2Nc2ccc3c(c2)OCCO3)cc1 | inactive
32 | COc1cc(/C=C(\C#N)C(=O)Nc2ccc3c(c2)OCCO3)ccc1O | inactive
33 | Cc1c(CNC(=O)c2c([N+](=O)[O-])cnn2C)cnn1C | inactive
34 | COc1ccc(/C=C2\CCC(C3CCCC3)C2=O)cc1 (centres undefined) | inactive
35 | CC1(C)CCC/C(=C\c2ccccc2)C1=O | inactive
36 | COc1ccc(CNC(=O)C2=CC(c3ccc(OC)cc3)=NS(=O)(=O)N2C)cc1 | inactive
37 | Cc1cc(-c2ccc(NS(=O)(=O)c3ccccc3)c(C)c2)ccc1NS(=O)(=O)c1ccccc1 | inactive
38 | COc1ccc(C2=NS(=O)(=O)N(C)C(C(=O)NCc3ccc(F)cc3)=C2)cc1OC | inactive
39 | COc1ccc([N+](=O)[O-])cc1NC(=S)NC(C)=O | inactive
40 | Cc1ccc(-c2csc(NC(=O)/C=C/c3ccco3)c2C(=O)O)cc1 | inactive
41 | O=CN(c1ccccc1)c1ccc2ccccc2c1 | inactive
42 | CN1CCN(/N=C/c2c[nH]c3ccccc23)CC1 | inactive
43 | CCN1CC(CNCc2cn(-c3ccc(OC)cc3)nc2-c2ccccc2Cl)CC1=O (centres undefined) | inactive
44 | COc1cc([N+](=O)[O-])ccc1NC(=O)Oc1ccc(NC(C)=O)cc1 | inactive
45 | COc1ccccc1-n1c(SCC(=O)O)nc2c(sc(=S)n2-c2ccc(C)c(C)c2)c1=O | inactive
46 | CC(=O)Nc1ccc(NC(=O)[C@@H]2CCCN2S(=O)(=O)c2ccc3c(c2)OCCO3)cc1 | inactive

Row | SMILES | activity change, negative = inhibition
47 | O=C(O)c1cc(NS(=O)(=O)c2ccc(NC3CCCCC3)c([N+](=O)[O-])c2)cc(C(=O)O)c1 | inactive
48 | CNC(=O)N(O)C1N(/N=C/c2ccc(SC)cc2)C(=S)SC1(C)C (centres undefined) | inactive
49 | Nc1ccc(-c2nc3ccc(N)cc3o2)cc1 | inactive
50 | O=C1Nc2ccccc2C1c1ncc(C(F)(F)F)cc1Cl (centres undefined) | inactive
51 | Nc1ccc(Sc2ccc(N)cc2)cc1 | inactive
52 | Cc1nn(C)cc1-c1n[nH]c(=S)n1-c1ccc(F)cc1 | inactive
53 | COc1ccccc1C1NC(=O)NC(C)=C1C(=O)OC1CCCCC1 (centres undefined) | inactive
54 | CCOC(CCNC(=O)c1cn(CCOC)c(=O)c2c1c1ccccc1n2C)OCC | inactive
55 | Cc1cc(C(=O)N2CCN(Cc3ccccc3)CC2)ccc1[N+](=O)[O-] | inactive
56 | COc1ccc(C(=O)N2CCOCC2)cc1S(=O)(=O)N1CCCc2ccccc21 | inactive
57 | Cc1onc(-c2ccccc2)c1C(=O)N/N=C/c1cn(C)c2ccccc12 | inactive
58 | CC(=O)Nc1ccc(NC(=O)CN2CCN(c3ccccn3)CC2)cc1 | inactive
59 | O=C(Cc1ccccc1)NNC(=S)NC(=O)c1cccnc1 | inactive
60 | COC(=O)c1ccc(C23CC4(C2)[C@H](CN(Cc2ccc(C(F)(F)F)cc2)[C@@H]4c2ccccc2)C3c2ccc(Cl)nc2)cc1 (some centres undefined) | inactive
61 | CC(=O)C[C@H]1c2ccccc2S(=O)(=O)N1C1CCCCC1 | inactive
62 | Fc1ccc(/C=C\c2nccc3c2[nH]c2ccccc23)cc1 | inactive
63 | CC(C)=CCOc1c2occc2cc2ccc(=O)oc12 | inactive
64 | Cc1ccc(-c2cc(C(=O)NNC(=O)c3csc(N4CCOCC4)n3)c3ccccc3n2)cc1 | inactive
